Source: ChEMBL document CHEMBL3885861, “Open TG-GATES”

Organism: Rattus norvegicus
Assay: Open TG-GATES - Regimen: Daily Repeat
Type: toxicity, organism-based, Sprague-Dawley
Set-up: regimen Daily Repeat, gender Male, age 6 weeks
Conditions: in vivo, po, route gavage; for APTT / Bas / Eos / Fbg / Hb / Ht / Lym / MCH / MCHC / MCV / Mono / PT / Plat / RBC / Ret / WBC / Neu: tissue Blood; for ALP / ALT / BUN / CRE / DBIL / GLC / IP / K / LDH / Na / PL / RALB / TBIL / TC / TG / TP / gamma-GTP: tissue Plasma
[1] = 0 mg/kg, 72 h, dose level Control, time 3 day
[2] = 0 mg/kg, […], dose level Control, time 7 day
[3] = 0 mg/kg, […], dose level Control, time 14 day
[4] = 0 mg/kg, […], dose level Control, time 28 day
[5] = 60 mg/kg, 72 h, dose level Low, time 3 day
[6] = 60 mg/kg, […], dose level Low, time 7 day
[7] = 60 mg/kg, […], dose level Low, time 14 day
[8] = 60 mg/kg, […], dose level Low, time 28 day

For CCN(CC)C(=S)SSC(=S)N(CC)CC, the TERMINAL_BW [1] was 228.6 g, the APTT [1] was 22.7 s and the Bas [1] was 0%. It also gave an Eos [1] of 0.8%, a Fbg [1] of 295 mg/dL and a Hb [1] of 12.5 g/dL. It also gave a Ht [1] of 38.7%, a Lym [1] of 81.8% and an MCH [1] of 20.5 pg. For the same compound, the MCHC [1] was 32.2%, the MCV [1] was 63.6 fL and the Mono [1] was 2.4%. It also gave a PT [1] of 16.3 s, a Plat [1] of 112 x10_4/uL and an RBC [1] of 609 x10_4/ul. It also gave a Ret [1] of 7%, a WBC [1] of 78.4 x10_2/uL and an ALP [1] of 1421 IU/L. For the same compound, the ALT [1] was 42.6 IU/L, the BUN [1] was 17.6 mg/dL and the CRE [1] was 0.2 mg/dL. For the same compound, the DBIL [1] was 0 mg/dL, the GLC [1] was 192.2 mg/dL and the IP [1] was 7.8 mg/dL. For the same compound, the K [1] was 4.2 meq/L, the LDH [1] was 190.4 IU/L and the Na [1] was 142.6 meq/L. It also gave a PL [1] of 136.8 mg/dL, an RALB [1] of 3.1 g/dL and a TBIL [1] of 0.002 mg/dL. For the same compound, the TC [1] was 73.4 mg/dL, the TG [1] was 91.6 mg/dL and the TP [1] was 5.5 g/dL. The gamma-GTP [1] was 1.4 IU/L, the TERMINAL_BW [2] was 265.7 g and the TERMINAL_BW [3] was 313.3 g. For the same compound, the TERMINAL_BW [4] was 364.4 g, the APTT [2] was 22.1 s and the Bas [2] was 0%. It also gave an Eos [2] of 0.8%, a Fbg [2] of 315 mg/dL and a Hb [2] of 12.8 g/dL. For the same compound, the Ht [2] was 39.2%, the Lym [2] was 82% and the MCH [2] was 20.3 pg. The MCHC [2] was 32.6%, the MCV [2] was 62.3 fL and the Mono [2] was 2.8%. The PT [2] was 16.4 s, the Plat [2] was 116.8 x10_4/uL and the RBC [2] was 629 x10_4/ul. The Ret [2] was 6.3%, the WBC [2] was 134.5 x10_2/uL and the APTT [3] was 23.7 s. It also gave a Bas [3] of 0%, an Eos [3] of 1% and a Fbg [3] of 311.2 mg/dL. For the same compound, the Hb [3] was 13.9 g/dL, the Ht [3] was 41.2% and the Lym [3] was 82.4%. For the same compound, the MCH [3] was 20.1 pg, the MCHC [3] was 33.9% and the MCV [3] was 59.4 fL. For the same compound, the Mono [3] was 2%, the Neu [3] was 13.4% and the PT [3] was 16.3 s. The Plat [3] was 112 x10_4/uL, the RBC [3] was 693.4 x10_4/ul and the Ret [3] was 4.9%. It also gave a WBC [3] of 133.7 x10_2/uL, an APTT [4] of 24.8 s and a Bas [4] of 0%. The Eos [4] was 1.2%, the Fbg [4] was 321.4 mg/dL and the Hb [4] was 15.2 g/dL. For the same compound, the Ht [4] was 44.8%, the Lym [4] was 83.2% and the MCH [4] was 19.5 pg. It also gave an MCHC [4] of 34%, an MCV [4] of 57.5 fL and a Mono [4] of 2.2%. For the same compound, the Neu [4] was 12.2%, the PT [4] was 16.6 s and the Plat [4] was 98.2 x10_4/uL. It also gave an RBC [4] of 780.6 x10_4/ul, a Ret [4] of 2.8% and a WBC [4] of 121 x10_2/uL. For the same compound, the ALP [2] was 1448.6 IU/L, the ALT [2] was 43.6 IU/L and the BUN [2] was 17.4 mg/dL. It also gave a CRE [2] of 0.2 mg/dL, a DBIL [2] of 0 mg/dL and a GLC [2] of 203.8 mg/dL. For the same compound, the IP [2] was 7.9 mg/dL, the K [2] was 4.5 meq/L and the LDH [2] was 223 IU/L. It also gave a Na [2] of 142 meq/L, a PL [2] of 138.4 mg/dL and an RALB [2] of 3.1 g/dL. It also gave a TBIL [2] of 0.008 mg/dL, a TC [2] of 71.4 mg/dL and a TG [2] of 106.6 mg/dL. It also gave a TP [2] of 5.5 g/dL, a gamma-GTP [2] of 2.2 IU/L and an ALP [3] of 1430.8 IU/L. For the same compound, the ALT [3] was 45 IU/L, the BUN [3] was 20.8 mg/dL and the CRE [3] was 0.2 mg/dL. The DBIL [3] was 0 mg/dL, the GLC [3] was 204.2 mg/dL and the IP [3] was 7.4 mg/dL. For the same compound, the K [3] was 4.4 meq/L, the LDH [3] was 167 IU/L and the Na [3] was 141.2 meq/L. The PL [3] was 143 mg/dL, the RALB [3] was 3.2 g/dL and the TBIL [3] was 0 mg/dL. It also gave a TC [3] of 73.6 mg/dL, a TG [3] of 91.4 mg/dL and a TP [3] of 5.8 g/dL. The gamma-GTP [3] was 2.6 IU/L, the ALP [4] was 1127.4 IU/L and the ALT [4] was 35 IU/L. The BUN [4] was 18.4 mg/dL, the CRE [4] was 0.2 mg/dL and the DBIL [4] was 0 mg/dL. It also gave a GLC [4] of 202.8 mg/dL, an IP [4] of 6.8 mg/dL and a K [4] of 4 meq/L. The LDH [4] was 154.8 IU/L, the Na [4] was 143.2 meq/L and the PL [4] was 145 mg/dL. It also gave an RALB [4] of 3.2 g/dL, a TBIL [4] of 0.014 mg/dL and a TC [4] of 76 mg/dL. For the same compound, the TG [4] was 113.4 mg/dL, the TP [4] was 6 g/dL and the gamma-GTP [4] was 2.6 IU/L. For the same compound, the TERMINAL_BW [5] was 224.7 g, the APTT [5] was 21.1 s and the Bas [5] was 0%. It also gave an Eos [5] of 0.6%, a Fbg [5] of 308.2 mg/dL and a Hb [5] of 12.3 g/dL. The Ht [5] was 38.1%, the MCH [5] was 19.7 pg and the MCHC [5] was 32.2%. The MCV [5] was 61.2 fL, the Mono [5] was 2.2% and the PT [5] was 15.9 s. It also gave a Plat [5] of 113.7 x10_4/uL, an RBC [5] of 624.4 x10_4/ul and a Ret [5] of 4.6%. For the same compound, the WBC [5] was 88.7 x10_2/uL, the ALP [5] was 1308.8 IU/L and the ALT [5] was 45.4 IU/L. The BUN [5] was 17.8 mg/dL, the CRE [5] was 0.2 mg/dL and the DBIL [5] was 0 mg/dL. It also gave a GLC [5] of 178.8 mg/dL, an IP [5] of 7 mg/dL and a K [5] of 4.1 meq/L. It also gave an LDH [5] of 188 IU/L, a Na [5] of 143.6 meq/L and a PL [5] of 151.6 mg/dL. It also gave an RALB [5] of 3.1 g/dL, a TBIL [5] of 0.004 mg/dL and a TC [5] of 86.2 mg/dL. The TG [5] was 83 mg/dL, the TP [5] was 5.5 g/dL and the gamma-GTP [5] was 1.6 IU/L. For the same compound, the TERMINAL_BW [6] was 255.2 g, the TERMINAL_BW [7] was 296.1 g and the TERMINAL_BW [8] was 358.2 g. It also gave an APTT [6] of 21.7 s, a Bas [6] of 0% and an Eos [6] of 0.6%. It also gave a Fbg [6] of 312.8 mg/dL, a Hb [6] of 12.4 g/dL and a Ht [6] of 38.4%. For the same compound, the MCH [6] was 20.1 pg, the MCHC [6] was 32.3% and the MCV [6] was 62.1 fL. The Mono [6] was 2.4%, the PT [6] was 16 s and the Plat [6] was 129.8 x10_4/uL. The RBC [6] was 620.4 x10_4/ul, the Ret [6] was 7.5% and the WBC [6] was 137.8 x10_2/uL. It also gave an APTT [7] of 23.8 s, a Bas [7] of 0% and an Eos [7] of 1%. The Fbg [7] was 319.4 mg/dL, the Hb [7] was 13.9 g/dL and the Ht [7] was 40.9%. For the same compound, the MCH [7] was 19.7 pg, the MCHC [7] was 33.8% and the MCV [7] was 58.2 fL. The Mono [7] was 2.8%, the PT [7] was 16.1 s and the Plat [7] was 124.6 x10_4/uL. For the same compound, the RBC [7] was 704.6 x10_4/ul, the Ret [7] was 5.1% and the WBC [7] was 126 x10_2/uL. It also gave an APTT [8] of 24 s, a Bas [8] of 0% and an Eos [8] of 1%. The Fbg [8] was 329.2 mg/dL, the Hb [8] was 14.2 g/dL and the Ht [8] was 41.1%. It also gave an MCH [8] of 19.2 pg, an MCHC [8] of 34.7% and an MCV [8] of 55.4 fL. For the same compound, the Mono [8] was 2.2%, the PT [8] was 16.5 s and the Plat [8] was 108.8 x10_4/uL. For the same compound, the RBC [8] was 742.2 x10_4/ul, the Ret [8] was 3.3% and the WBC [8] was 116.8 x10_2/uL. For the same compound, the ALP [6] was 991.6 IU/L, the ALT [6] was 37.4 IU/L and the BUN [6] was 16.8 mg/dL. For the same compound, the CRE [6] was 0.2 mg/dL, the DBIL [6] was 0 mg/dL and the GLC [6] was 183 mg/dL. It also gave an IP [6] of 7 mg/dL, a K [6] of 4.4 meq/L and an LDH [6] of 217.8 IU/L. The Na [6] was 143.6 meq/L, the PL [6] was 142.4 mg/dL and the RALB [6] was 3 g/dL. The TBIL [6] was 0.012 mg/dL, the TC [6] was 78.4 mg/dL and the TG [6] was 64.2 mg/dL. It also gave a TP [6] of 5.5 g/dL, a gamma-GTP [6] of 1.8 IU/L and an ALP [7] of 1244.8 IU/L. It also gave an ALT [7] of 37.6 IU/L, a BUN [7] of 18.6 mg/dL and a CRE [7] of 0.2 mg/dL. It also gave a DBIL [7] of 0 mg/dL, a GLC [7] of 178 mg/dL and an IP [7] of 6.2 mg/dL. The K [7] was 4.1 meq/L, the LDH [7] was 146.8 IU/L and the Na [7] was 142 meq/L. It also gave a PL [7] of 165.2 mg/dL, an RALB [7] of 3.2 g/dL and a TBIL [7] of 0.004 mg/dL. It also gave a TC [7] of 92.4 mg/dL, a TG [7] of 70.6 mg/dL and a TP [7] of 5.9 g/dL. For the same compound, the gamma-GTP [7] was 2.8 IU/L, the ALP [8] was 808.4 IU/L and the ALT [8] was 36 IU/L. For the same compound, the CRE [8] was 0.2 mg/dL, the DBIL [8] was 0 mg/dL and the GLC [8] was 183.4 mg/dL. The IP [8] was 5.8 mg/dL, the K [8] was 4 meq/L and the LDH [8] was 106.2 IU/L. For the same compound, the Na [8] was 142.4 meq/L, the PL [8] was 150.2 mg/dL and the RALB [8] was 3 g/dL. The TBIL [8] was 0.018 mg/dL and the TC [8] was 87.2 mg/dL.
